From patent publication US8883963B2 (Cadila Healthcare Limited, priority 2007, dated 2014)

Assays:
[1] = test system: C57BL/6J mice (mild hyperglycemic); experiment: In vivo glucose reduction, acute single dose 120-min time-course, i.p. route; design: species or system mouse; unit not given here; details: male C57BL/6J mice, 30 nM/kg i.p.
[2] = test system: C57BL/6J mice (mild hyperglycemic); experiment: In vivo glucose reduction, acute single dose 120-min time-course, oral route; design: species or system mouse; unit not given here; details: male C57BL/6J mice, 2 μM/kg oral
Method: Acute single dose 120-min time-course experiments were carried out in male C57BL/6J or db/db mice, age 8-12 weeks, bred in-house. Animals were housed in groups of 6 animals per cage, for a week, in order to habituate them to vivarium conditions (25±4° C., 60-65% relative humidity, 12:12 h light:dark cycle, with lights on at 7.30 am). All the animal experiments were carried out according to the internationally valid guidelines following approval by the ‘Zydus Research Center animal ethical committee’.
Two days prior to the study, the animals were randomised and divided into 5 groups (n=6), based upon their fed glucose levels. On the day of experiment, food was withdrawn from all the cages, water was given ad-libitum and were kept for overnight fasting. Vehicle (normal saline)/test/standard compounds were administered intraperitoneally (i.p.) or orally, on a body weight basis. Soon after the 0 min. blood collection from each animal, the subsequent blood collections were done at 30, 60 and 120 or up to 240 min., via retro-orbital route, under light ether anesthesia (Chen, D., et al., Diabetes Obesity Metabolism, 2005, 7, 307. Kim, J. G. et al., Diabetes, 2003, 52, 751).
Blood samples were centrifuged and the separated serum was immediately subjected for the glucose estimation. Serum for insulin estimation was stored at −70° C. until used for the insulin estimation. The glucose estimation was carried out with DPEC-GOD/POD method (Ranbaxy Fine Chemicals Limited, Diagnostic division, India), using Spectramax-190, in 96-microwell plate reader (Molecular devices Corporation, Sunnyvale, Calif.). […] The AUC and BCAUC obtained from graphs were analyzed for one way ANOVA, followed by Dunnett's post test, using Graph Pad prism software. Furthermore, the insulin estimation was carried out using rat/mouse insulin ELISA kit (Linco research, Missouri USA). Changes in the blood glucose levels, at 0, 30, 60 and 120 min, with selected peptidomimetics are shown in Table 7 (via ip route of administration) and Table 8 (via oral route of administration) respectively.

Compound `CCc1cc(OC)ccc1-c1ccc(CC(C(=O)N(C)C(CCCc2ccccc2)C(N)=O)N(C)C(=O)[C@H](CC(=O)O)N(C)C(=O)[C@H](CO)NC(=O)[C@@H](NC(=O)C(C)(Cc2ccccc2F)NC(=O)[C@@H](NC(=O)CNC(=O)C(CCC#N)NC(=O)C(C)(C)NC(=O)[C@@H](N)Cc2c[nH]cn2)[C@H](C)O)[C@H](C)O)cc1` (single isomer, unassigned) [Seq. ID. 154] has a blood glucose levels ([1]; 0 min) of 181 ± 4.1, a blood glucose levels ([1]; 30 min) of 117 ± 3.8 and a blood glucose levels ([1]; 60 min) of 117 ± 3.0. For the same compound, the blood glucose levels ([1]; 120 min) was 117 ± 1.6, the blood glucose levels ([2]; 0 min) was 181 ± 2.5 and the blood glucose levels ([2]; 30 min) was 117 ± 3.3. For the same compound, the blood glucose levels ([2]; 60 min) was 112 ± 4.0 and the blood glucose levels ([2]; 120 min) was 108 ± 2.9.
